Assay results as given in PubChem BioAssay (NCI).
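48-hour exposure; five concentrations; linearly interpolated endpoints. TGI: concentration producing complete growth inhibition.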

Columns and labels:
Assay in all cases: growth of human tumour cells (NCI), 48 h
PC-3 prostate = test system: PC-3 prostate
MDA-MB-435 = test system: MDA-MB-435
NCI-H226 lung = test system: NCI-H226 lung
SK-MEL-28 melanoma = test system: SK-MEL-28 melanoma
OVCAR-8 ovarian = test system: OVCAR-8 ovarian
SNB-75 CNS = test system: SNB-75 CNS
SK-MEL-2 melanoma = test system: SK-MEL-2 melanoma
UACC-62 melanoma = test system: UACC-62 melanoma
NCI/ADR-RES ovarian = test system: NCI/ADR-RES ovarian
TK-10 renal = test system: TK-10 renal
IGROV1 ovarian = test system: IGROV1 ovarian
A549 NSCLC = test system: A549 NSCLC
HCT-116 colon = test system: HCT-116 colon
SNB-19 CNS = test system: SNB-19 CNS
KM12 colon = test system: KM12 colon
786-0 renal = test system: 786-0 renal
LOX IMVI melanoma = test system: LOX IMVI melanoma
CCRF-CEM leukemia = test system: CCRF-CEM leukemia
SR leukemia = test system: SR leukemia
CAKI-1 renal = test system: CAKI-1 renal

| Structure (SMILES) | TGI (PC-3 prostate) [µM] | TGI (MDA-MB-435) [µM] | TGI (NCI-H226 lung) [µM] | TGI (SK-MEL-28 melanoma) [µM] | TGI (OVCAR-8 ovarian) [µM] | TGI (SNB-75 CNS) [µM] | TGI (SK-MEL-2 melanoma) [µM] | TGI (UACC-62 melanoma) [µM] | TGI (NCI/ADR-RES ovarian) [µM] | TGI (TK-10 renal) [µM] | TGI (IGROV1 ovarian) [µM] | TGI (A549 NSCLC) [µM] | TGI (HCT-116 colon) [µM] | TGI (SNB-19 CNS) [µM] | TGI (KM12 colon) [µM] | TGI (786-0 renal) [µM] | TGI (LOX IMVI melanoma) [µM] | TGI (CCRF-CEM leukemia) [µM] | TGI (SR leukemia) [µM] | TGI (CAKI-1 renal) [µM] |
| --- | --- | --- | --- | --- | --- | --- | --- | --- | --- | --- | --- | --- | --- | --- | --- | --- | --- | --- | --- | --- |
| COC(=O)C(Cc1ccccc1)NP(=O)(O)OCC1OC(n2cc(Br)c(=O)[nH]c2=O)CC1O (centres undefined) | > 100 | > 100 | > 100 | > 100 | > 100 | > 100 | > 100 | > 100 | > 100 | > 100 | > 100 | > 100 | > 100 | > 100 | > 100 | > 100 | > 100 | > 100 | > 100 |  |
| COC(=O)C1=C(C)NC(C)=C(C(=O)OC)C1c1ccccc1NO | > 100 | > 100 | > 100 | > 100 | > 100 |  | > 100 | > 100 | > 100 | > 100 | > 100 | > 100 | 48.2 | > 100 | > 100 | > 100 | > 100 | > 100 | > 100 | > 100 |
| COC(=O)C1=C(C)C(=O)[C@]23C(CCCC[C@H]12)C(=O)[C@H](C(=O)OC)C3C (some centres undefined) | > 100 | > 100 | > 100 | > 100 | > 100 |  |  | > 100 | > 100 | > 100 | > 100 | > 100 | > 100 | > 100 | > 100 | > 100 | > 100 | > 100 | > 100 | > 100 |
| Cc1c(C)c(C)c(-n2c(=O)n(C)c(=O)n2-n2c(=O)n(C)c(=O)n2-c2c(C)c(C)c(C)c(C)c2C)c(C)c1C | > 100 | > 100 | > 100 | > 100 | > 100 | > 100 | > 100 | > 100 | > 100 | > 100 | > 100 | > 100 | > 100 | > 100 | > 100 | > 100 | > 100 |  | > 100 | > 100 |
| COc1cc(C(=O)/C=C/c2ccc(OCC#N)cc2)cc(OC)c1OC | 38 | 40.2 | 58.5 | 32 | > 100 |  |  | 48.5 | 48.3 | 70.1 | > 100 | 50.9 | 26.9 | 54.4 | 32 | 37.9 |  | 65.1 | 55.4 | 69.6 |
| O=S1(=O)OCCOS(=O)(=O)C1S(=O)(=O)c1ccc2ccccc2c1 | > 100 | > 100 |  | > 100 | > 100 |  | > 100 |  | > 100 | > 100 | > 100 | > 100 | > 100 | > 100 | > 100 | > 100 | > 100 | > 100 | > 100 | > 100 |
| N#CC(C#N)=C1c2ccccc2C(=NN)c2ccccc21 | > 100 | > 100 | > 100 | > 100 | > 100 | > 100 | > 100 | > 100 | > 100 | > 100 | > 100 |  |  | > 100 | > 100 | > 100 |  | > 100 | > 100 | > 100 |
| CC(=O)OCCCC(NC(=O)OC(C)(C)C)C(=O)NC(CCCOC(C)=O)C(=O)NC(Cc1ccc([N+](=O)[O-])cc1)C(=O)NCC(=O)OCc1ccccc1 (centres undefined) | 30.9 | 31.1 | 31.3 | 31.9 | 31 |  | 29.1 | 29 | 41.8 | 43.3 | 34 | 38.8 | 32.4 | 32.9 | 29 | 31.9 | 25.9 | > 100 | 44.6 | 34.5 |
| Cc1ccc(C2=Nn3c(nc4sc(C)c(C)c4c3=O)SC2)cc1 | > 100 | > 100 | > 100 | > 100 | > 100 | > 100 |  | > 100 | > 100 | 85.3 | > 100 | > 100 | > 100 |  | > 100 | > 100 | > 100 |  | > 100 | > 100 |
| Fc1ccc(C(OCCN2CCN(CCCCl)CC2)c2ccc(F)cc2)cc1 | > 100 | 32.1 | 40.9 | > 100 | 91 |  | 52 | 40.7 | 70.8 | > 100 | 86.4 | > 100 | 46.6 | > 100 | 38 | 94.6 | 32.9 | > 100 | 61.9 | > 100 |
| O=c1ccn2n1Cc1ccccc1C2 | > 100 | > 100 | > 100 | > 100 | > 100 |  | > 100 | > 100 | > 100 | > 100 | > 100 | > 100 | > 100 | > 100 | > 100 | > 100 | > 100 | > 100 | > 100 | > 100 |
| CC(CC[C@@H](O)C(C)(C)O)C1[C@@H](O)CC2(C)C3CC(O)C4C(C)(C)[C@@H](OC5OC(CO)C(O)C(O)C5O)CC[C@@]45C[C@@]35CC[C@]12C (some centres undefined) | > 10 | > 10 | > 10 | > 10 | > 10 | > 10 | > 10 | > 10 | > 10 | > 10 | > 10 | > 10 | > 10 | > 10 | > 10 | > 10 |  | > 10 | > 10 | > 10 |
